Each block holds one compound with its values, some of them ahead of it.
Columns and labels:
[1] = biological target: T1, FAAH (Mus musculus, UniProt O08914); test: In vitro competitive activity-based protein profiling, FAAH, mouse; details: read-out: FAAH % inh. 1 μM (mouse)
T1 sequence (O08914 1-579): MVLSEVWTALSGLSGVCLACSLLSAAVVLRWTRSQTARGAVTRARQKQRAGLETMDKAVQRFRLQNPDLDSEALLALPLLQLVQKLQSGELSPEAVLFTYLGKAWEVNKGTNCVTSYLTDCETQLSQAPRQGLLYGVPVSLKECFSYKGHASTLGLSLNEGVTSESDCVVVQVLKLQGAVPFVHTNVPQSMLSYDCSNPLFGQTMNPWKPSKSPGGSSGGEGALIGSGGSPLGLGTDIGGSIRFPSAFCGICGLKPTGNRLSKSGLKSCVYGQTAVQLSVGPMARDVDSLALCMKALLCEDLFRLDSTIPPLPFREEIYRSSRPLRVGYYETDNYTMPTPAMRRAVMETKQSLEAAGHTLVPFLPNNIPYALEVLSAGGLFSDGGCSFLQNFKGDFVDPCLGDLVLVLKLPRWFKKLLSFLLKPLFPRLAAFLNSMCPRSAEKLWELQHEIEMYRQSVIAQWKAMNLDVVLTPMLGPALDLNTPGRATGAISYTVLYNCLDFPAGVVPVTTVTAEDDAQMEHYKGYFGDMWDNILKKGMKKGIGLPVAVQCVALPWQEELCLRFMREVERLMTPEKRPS

[2] = biological target: T2, MAGL (Mus musculus, UniProt O35678); test: In vitro competitive activity-based protein profiling, MAGL, mouse; details: read-out: MAGL % inh. 1 μM (mouse)
T2 sequence (O35678 1-303): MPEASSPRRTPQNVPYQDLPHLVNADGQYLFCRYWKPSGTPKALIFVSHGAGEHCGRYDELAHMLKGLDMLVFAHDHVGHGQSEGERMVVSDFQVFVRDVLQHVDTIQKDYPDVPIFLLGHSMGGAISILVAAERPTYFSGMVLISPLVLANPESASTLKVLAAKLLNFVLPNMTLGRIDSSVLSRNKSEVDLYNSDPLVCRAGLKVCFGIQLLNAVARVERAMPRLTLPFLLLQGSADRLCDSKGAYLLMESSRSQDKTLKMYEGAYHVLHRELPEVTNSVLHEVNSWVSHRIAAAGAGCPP

[3] = biological target: T3, FAAH (Homo sapiens, UniProt O00519); test: In vitro competitive activity-based protein profiling, FAAH, human; details: for inhibition at 1 µM: read-out: FAAH % inh. 1 μM (human)
T3 sequence (O00519 1-579): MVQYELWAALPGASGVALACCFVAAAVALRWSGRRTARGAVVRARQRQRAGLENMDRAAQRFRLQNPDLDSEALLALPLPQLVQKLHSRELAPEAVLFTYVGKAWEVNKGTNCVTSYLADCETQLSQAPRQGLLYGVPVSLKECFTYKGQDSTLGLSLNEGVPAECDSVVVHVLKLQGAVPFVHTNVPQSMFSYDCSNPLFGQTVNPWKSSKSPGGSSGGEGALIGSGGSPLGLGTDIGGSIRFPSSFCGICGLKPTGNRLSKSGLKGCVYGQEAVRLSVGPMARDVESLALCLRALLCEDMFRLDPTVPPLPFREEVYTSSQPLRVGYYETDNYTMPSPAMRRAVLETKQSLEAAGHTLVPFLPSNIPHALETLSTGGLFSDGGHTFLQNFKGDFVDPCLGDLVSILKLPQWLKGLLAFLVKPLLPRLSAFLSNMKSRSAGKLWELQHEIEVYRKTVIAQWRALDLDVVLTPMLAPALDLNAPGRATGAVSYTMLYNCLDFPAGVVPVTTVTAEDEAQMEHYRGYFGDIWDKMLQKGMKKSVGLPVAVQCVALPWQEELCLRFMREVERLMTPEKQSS

[4] = biological target: T4, MAGL (Homo sapiens, UniProt Q99685); test: In vitro competitive activity-based protein profiling, MAGL, human; details: for inhibition at 1 µM: read-out: MAGL % inh. 1 μM (human)
T4 sequence (Q99685 1-303): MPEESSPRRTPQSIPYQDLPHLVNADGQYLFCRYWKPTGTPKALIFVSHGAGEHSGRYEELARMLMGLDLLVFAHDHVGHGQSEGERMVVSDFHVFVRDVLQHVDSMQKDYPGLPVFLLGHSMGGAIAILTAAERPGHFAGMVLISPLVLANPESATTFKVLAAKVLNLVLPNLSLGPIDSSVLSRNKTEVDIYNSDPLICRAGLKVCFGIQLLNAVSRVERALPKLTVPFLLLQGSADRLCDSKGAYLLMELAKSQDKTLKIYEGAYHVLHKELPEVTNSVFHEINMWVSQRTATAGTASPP

Structure (SMILES): C#Cc1ccc(CN2CCN(C(=O)n3ccc(C(=O)O)n3)CC2)cc1 [Example 50, 1-(4-(4-ethynylbenzyl)piper-azine-1-carbonyl)-1H-pyrazole-3-carboxylic acid]
- inhibition at 1 µM [1]: 0 to 25%
- inhibition at 1 µM [2]: 0 to 25%
- inhibition at 10 µM ([3]; read-out: FAAH % inh. (human) at 10 uM): > 75%
- inhibition at 10 µM ([4]; read-out: MAGL % inh. (human) at 10 uM): > 75%

Structure (SMILES): O=C(O)c1ccn(C(=O)N2CCN(Cc3cccc(Oc4ccccn4)c3)CC2)n1 [Example 52]
- inhibition at 1 µM [1]: 0 to 25%
- inhibition at 1 µM [2]: > 75%
- inhibition at 1 µM [3]: 0 to 25%
- inhibition at 1 µM [4]: > 75%

Structure (SMILES): O=C(O)c1ccn(C(=O)N2C[C@H]3C[C@H](OCc4cc(F)cc(Cl)c4)C[C@H]3C2)n1 [Example 53, 1-(trans-5-((3-chloro-5-fluorobenzyl)oxy)octahydrocyclopenta [c]pyrrole-2-carbonyl)-1H-pyrazole-3-carboxylic acid]
- inhibition at 1 µM [1]: > 75%
- inhibition at 1 µM [2]: > 75%
- IC50 [3]: 100 to 1000 nM
- inhibition at 1 µM [3]: > 75%
- inhibition at 1 µM [4]: > 75%

Structure (SMILES): CN(Cc1cc(Cl)ccc1C(F)(F)F)CC1CCN(C(=O)n2cc(Cl)c(C(=O)O)n2)CC1 [Example 54, 4-chloro-1-(4-(((5-chloro-2-(trifluoromethyl)benzyl)(methyl)amino)methyl)piper-idine-1-carbonyl)-1H-pyrazole-3-carboxylic acid]
- inhibition at 1 µM [1]: > 75%
- inhibition at 1 µM [2]: > 75%
- IC50 [3]: 100 to 1000 nM
- inhibition at 1 µM [3]: > 75%
- inhibition at 1 µM [4]: > 75%

Structure (SMILES): O=C(O)c1ccn(C(=O)N2CCC3(CCCN3C(=O)c3cc4ccc(C(F)(F)F)cc4s3)CC2)n1 [Example 56, 1-(1-(6-(trifluoromethyl)benzo[b]thiophene-2-carbonyl)-1,8-diazaspiro[4.5]decane-8-carbonyl)-1H-pyrazole-3-carboxylic acid]
- inhibition at 1 µM [1]: 50 to 75%
- inhibition at 1 µM [2]: > 75%
- inhibition at 1 µM [3]: 0 to 25%
- inhibition at 1 µM [4]: > 75%

Structure (SMILES): O=C(O)c1ccn(C(=O)N2CCC3(CCN(C(=O)c4cc5ccc(C(F)(F)F)cc5s4)C3)CC2)n1 [Example 58, 1-(2-(6-(trifluoromethyl)benzo[b]thiophene-2-carbonyl)-2,8-diazaspiro[4.5]decane-8-carbonyl)-1H-pyrazole-3-carboxylic acid]
- inhibition at 1 µM [1]: 50 to 75%
- inhibition at 1 µM [2]: > 75%
- inhibition at 1 µM [3]: 0 to 25%
- inhibition at 1 µM [4]: > 75%

Structure (SMILES): O=C(O)c1ccn(C(=O)N2CCN(Cc3cccc(Oc4ccncc4)c3)CC2)n1 [Example 59, 1-(4-(3-(pyridin-4-yloxy)benzyl)piper-azine-1-carbonyl)-1H-pyrazole-3-carboxylic acid]
- inhibition at 1 µM [1]: 0 to 25%
- inhibition at 1 µM [2]: > 75%
- inhibition at 1 µM [3]: 0 to 25%
- inhibition at 1 µM [4]: > 75%

Structure (SMILES): O=C(O)c1ccn(C(=O)N2CCN(Cc3cccc(Oc4cnccn4)c3)CC2)n1 [Example 60]
- inhibition at 1 µM [1]: 0 to 25%
- inhibition at 1 µM [2]: 0 to 25%
- inhibition at 1 µM [3]: 0 to 25%
- inhibition at 1 µM [4]: 25 to 50%

Structure (SMILES): O=C(O)c1ccn(C(=O)N2CCN(Cc3cccc(Oc4ccc(C(F)(F)F)cn4)c3)CC2)n1 [Example 61, 1-(4-(3-((5-(trifluoromethyl)pyridin-2-yl)oxy)benzyl)piper-azine-1-carbonyl)-1H-pyrazole-3-carboxylic acid]
- inhibition at 1 µM [1]: > 75%
- inhibition at 1 µM [2]: > 75%
- IC50 [3]: 100 to 1000 nM
- inhibition at 1 µM [3]: > 75%
- inhibition at 1 µM [4]: > 75%

Structure (SMILES): O=C(O)c1ccn(C(=O)N2CCN(Cc3cccc(Oc4ncccn4)c3)CC2)n1 [Example 62, 1-(4-(3-(pyrimidin-2-yloxy)benzyl)piper-azine-1-carbonyl)-1H-pyrazole-3-carboxylic acid]
- inhibition at 1 µM [1]: 0 to 25%
- inhibition at 1 µM [2]: 0 to 25%
- inhibition at 1 µM [3]: 0 to 25%
- inhibition at 1 µM [4]: 50 to 75%

Structure (SMILES): O=C(O)c1ccn(C(=O)N2CCN(Cc3cccc(Oc4ccncn4)c3)CC2)n1 [Example 63, 1-(4-(3-(pyrimidin-4-yloxy)benzyl)piper-azine-1-carbonyl)-1H-pyrazole-3-carboxylic acid]
- inhibition at 1 µM [1]: 0 to 25%
- inhibition at 1 µM [2]: 0 to 25%
- inhibition at 1 µM [3]: 50 to 75%
- inhibition at 1 µM [4]: 25 to 50%

Structure (SMILES): O=C(O)c1ccn(C(=O)N2CCN(Cc3cccc(-c4ncccn4)c3)CC2)n1 [Example 64, 1-(4-(3-(pyrimidin-2-yl)benzyl)piperazine-1-carbonyl)-1H-pyrazole-3-carboxylic acid]
- inhibition at 1 µM [1]: 0 to 25%
- inhibition at 1 µM [2]: > 75%
- inhibition at 1 µM [3]: 0 to 25%
- inhibition at 1 µM [4]: > 75%

Now from value to compound:

- inhibition at 1 µM [1]: 0 to 25%
- inhibition at 1 µM [2]: 25 to 50%
- inhibition at 1 µM [3]: 0 to 25%
- inhibition at 1 µM [4]: 50 to 75%
Structure (SMILES): O=C(O)c1ccn(C(=O)N2CCN(Cc3cccc(Oc4cncnc4)c3)CC2)n1 [Example 65, 1-(4-(3-(pyrimidin-5-yloxy)benzyl)piper-azine-1-carbonyl)-1H-pyrazole-3-carboxylic acid]

- inhibition at 1 µM [1]: 0 to 25%
- inhibition at 1 µM [2]: > 75%
- inhibition at 1 µM [3]: 0 to 25%
- inhibition at 1 µM [4]: > 75%
Structure (SMILES): Cc1ccc(CN2CCN(C(=O)n3ccc(C(=O)O)n3)CC2)c(-c2nnco2)c1 [Example 66, 1-(4-(4-methyl-2-(1,3,4-oxadiazol-2-yl)benzyl)piperazine-1-carbonyl)-1H-pyrazole-3-carboxylic acid]

- inhibition at 1 µM [1]: 0 to 25%
- inhibition at 1 µM [2]: > 75%
- inhibition at 1 µM [3]: 0 to 25%
- inhibition at 1 µM [4]: > 75%
Structure (SMILES): O=C(O)c1ccn(C(=O)N2CCN(Cc3ccc(Cl)cc3-c3nnco3)CC2)n1 [Example 67, 1-(4-(4-chloro-2-(1,3,4-oxadiazol-2-yl)benzyl)piperazine-1-carbonyl)-1H-pyrazole-3-carboxylic acid]

- inhibition at 1 µM [1]: 0 to 25%
- inhibition at 1 µM [2]: > 75%
- inhibition at 1 µM [3]: 0 to 25%
- inhibition at 1 µM [4]: > 75%
Structure (SMILES): O=C(O)c1ccn(C(=O)N2CCN(Cc3ccc(OC(F)(F)F)cc3-c3nnco3)CC2)n1 [Example 68, 1-(4-(2-(1,3,4-oxadiazol-2-yl)-4-(trifluoromethoxy)benzyl)piperazine-1-carbonyl)-1H-pyrazole-3-carboxylic acid]

- inhibition at 1 µM [1]: 0 to 25%
- inhibition at 1 µM [2]: > 75%
- inhibition at 1 µM [3]: 0 to 25%
- inhibition at 1 µM [4]: > 75%
Structure (SMILES): O=C(O)c1ccn(C(=O)N2CCN(Cc3ccc(C(F)(F)F)cc3-c3nnco3)CC2)n1 [Example 69, 1-(4-(2-(1,3,4-oxadiazol-2-yl)-4-(trifluoromethyl)benzyl)piperazine-1-carbonyl)-1H-pyrazole-3-carboxylic acid]

- inhibition at 1 µM [1]: 0 to 25%
- inhibition at 1 µM [2]: 0 to 25%
- inhibition at 1 µM [3]: 50 to 75%
- inhibition at 1 µM [4]: 25 to 50%
Structure (SMILES): O=C(O)c1ccn(C(=O)N2CCC3(CCN(Cc4cc(F)cc(Cl)c4)C3)CC2)n1 [Example 70, 1-(2-(3-chloro-5-fluorobenzyl)-2,8-diazaspiro[4.5]decane-8-carbonyl)-1H-pyrazole-3-carboxylic acid]

- inhibition at 1 µM [1]: 0 to 25%
- inhibition at 1 µM [2]: > 75%
- inhibition at 1 µM [3]: 0 to 25%
- inhibition at 1 µM [4]: > 75%
Structure (SMILES): Cc1c(CN2CCC3(CCN(C(=O)n4ccc(C(=O)O)n4)CC3)C2)cccc1C(F)(F)F [Example 71, 1-(2-(2-methyl-3-(trifluoromethyl)benzyl)-2,8-diazaspiro[4.5]decane-8-carbonyl)-1H-pyrazole-3-carboxylic acid]
